# Experimental data from ChEMBL document CHEMBL1201862, “PubChem BioAssay data set” (2004).
#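 Following 48 hours of exposure in 96-well plates, responses at five concentrations were used to interpolate endpoints linearly. The concentration for 50% growth inhibition is given as GI50.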 Activity calls are given as the source filed them. No stated cut-off is given here; in the data, active = GI50 up to about 1.1 µM and inactive = higher.
# Experiments:
# Test in all cases: DTP human tumour cell line panel, 48 h
# NCI-H522 = test system: NCI-H522
# NCI-H23 = test system: NCI-H23
# BT-549 = test system: BT-549
# SF-539 = test system: SF-539
# MDA-N = test system: MDA-N
# SF-295 = test system: SF-295
# LOX IMVI = test system: LOX IMVI
# OVCAR-8 = test system: OVCAR-8
# HCT-116 = test system: HCT-116
# NCI/ADR-RES = test system: NCI/ADR-RES
# HOP-92 = test system: HOP-92
# SK-MEL-28 = test system: SK-MEL-28
# ACHN = test system: ACHN
# SF-268 = test system: SF-268
# Malme-3M = test system: Malme-3M
# SW-620 = test system: SW-620
# MOLT-4 = test system: MOLT-4
# T47D = test system: T47D
# HT-29 = test system: HT-29
# SNB-19 = test system: SNB-19
# HOP-62 = test system: HOP-62
# K562 = test system: K562
# MCF7 = test system: MCF7
# U-251 = test system: U-251
# IGROV-1 = test system: IGROV-1
# SK-OV-3 = test system: SK-OV-3
# CCRF-CEM = test system: CCRF-CEM
# UO-31 = test system: UO-31
# Hs-578T = test system: Hs-578T
# SK-MEL-2 = test system: SK-MEL-2
# NCI-H226 = test system: NCI-H226
# RPMI-8226 = test system: RPMI-8226
# A549 = test system: A549
# SN12C = test system: SN12C
# UACC-257 = test system: UACC-257
# EKVX = test system: EKVX
# MDA-MB-231 = test system: MDA-MB-231
# SK-MEL-5 = test system: SK-MEL-5
# PC-3 = test system: PC-3
# TK-10 = test system: TK-10
# SR = test system: SR
# CAKI-1 = test system: CAKI-1
# HCT-15 = test system: HCT-15
# OVCAR-5 = test system: OVCAR-5
# KM12 = test system: KM12
# OVCAR-3 = test system: OVCAR-3
# DU-145 = test system: DU-145
# COLO 205 = test system: COLO 205
# MDA-MB-435 = test system: MDA-MB-435
# RXF 393 = test system: RXF 393
# 786-0 = test system: 786-0
# A498 = test system: A498
# OVCAR-4 = test system: OVCAR-4
# HL-60 = test system: HL-60
# M14 = test system: M14
# UACC-62 = test system: UACC-62
# SNB-75 = test system: SNB-75
# NCI-H460 = test system: NCI-H460
compound,measurement,setting,value
CCOc1cc(C2CC(c3ccc(NS(=O)(=O)c4cc([N+](=O)[O-])ccc4C)cc3)=NN2S(=O)(=O)c2cc([N+](=O)[O-])ccc2C)ccc1O (stereo not given),GI50,NCI-H522,22.9 µM (inactive)
same,GI50,NCI-H23,30.6 µM (inactive)
same,GI50,BT-549,39.4 µM (inactive)
same,GI50,SF-539,33.7 µM (inactive)
same,GI50,MDA-N,43.3 µM (inactive)
same,GI50,SF-295,31.9 µM (inactive)
same,GI50,LOX IMVI,40.1 µM (inactive)
same,GI50,OVCAR-8,42.8 µM (inactive)
same,GI50,HCT-116,36.5 µM (inactive)
same,GI50,NCI/ADR-RES,39.4 µM (inactive)
same,GI50,HOP-92,17.5 µM (inactive)
same,GI50,SK-MEL-28,83 µM (inactive)
same,GI50,ACHN,39.6 µM (inactive)
same,GI50,SF-268,39.7 µM (inactive)
same,GI50,Malme-3M,23.3 µM (inactive)
same,GI50,SW-620,64.7 µM (inactive)
same,GI50,MOLT-4,30.4 µM (inactive)
same,GI50,T47D,19.8 µM (inactive)
same,GI50,HT-29,49.3 µM (inactive)
same,GI50,SNB-19,43.6 µM (inactive)
same,GI50,HOP-62,30.8 µM (inactive)
same,GI50,K562,35.1 µM (inactive)
same,GI50,MCF7,31.9 µM (inactive)
same,GI50,U-251,30.7 µM (inactive)
same,GI50,IGROV-1,18.5 µM (inactive)
same,GI50,SK-OV-3,39.9 µM (inactive)
same,GI50,CCRF-CEM,33 µM (inactive)
same,GI50,UO-31,32.6 µM (inactive)
same,GI50,Hs-578T,42.4 µM (inactive)
same,GI50,SK-MEL-2,22.6 µM (inactive)
same,GI50,NCI-H226,31.6 µM (inactive)
same,GI50,RPMI-8226,34.3 µM (inactive)
same,GI50,A549,32.4 µM (inactive)
same,GI50,SN12C,28.4 µM (inactive)
same,GI50,UACC-257,32.7 µM (inactive)
same,GI50,EKVX,22.1 µM (inactive)
same,GI50,MDA-MB-231,32.1 µM (inactive)
same,GI50,SK-MEL-5,18.5 µM (inactive)
same,GI50,PC-3,32.7 µM (inactive)
same,GI50,TK-10,36.4 µM (inactive)
same,GI50,SR,32.4 µM (inactive)
same,GI50,CAKI-1,42.9 µM (inactive)
same,GI50,HCT-15,39 µM
same,GI50,OVCAR-5,> 100 µM (inactive)
same,GI50,KM12,41.1 µM (inactive)
same,GI50,OVCAR-3,23.4 µM (inactive)
same,GI50,DU-145,43.8 µM (inactive)
same,GI50,COLO 205,37.4 µM (inactive)
same,GI50,MDA-MB-435,38.4 µM (inactive)
same,GI50,RXF 393,29 µM (inactive)
same,GI50,786-0,33.3 µM (inactive)
same,GI50,A498,2.44 µM (inactive)
same,GI50,OVCAR-4,38.6 µM (inactive)
same,GI50,HL-60,38.5 µM (inactive)
same,GI50,M14,34.1 µM (inactive)
CCN(CC)CCCNc1ccc([N+](=O)[O-])c2nc3ccccc3c(N)c12,GI50,NCI-H23,0.828 µM (active)
same,GI50,BT-549,1.4 µM (inactive)
same,GI50,SF-539,0.495 µM (active)
same,GI50,MDA-N,0.492 µM (active)
same,GI50,SF-295,0.581 µM (active)
same,GI50,LOX IMVI,0.482 µM (active)
same,GI50,OVCAR-8,0.65 µM (active)
same,GI50,HCT-116,0.544 µM (active)
same,GI50,NCI/ADR-RES,0.668 µM (active)
same,GI50,HOP-92,1.43 µM (inactive)
same,GI50,SK-MEL-28,3.98 µM (inactive)
same,GI50,ACHN,0.324 µM (active)
same,GI50,SF-268,1.23 µM (inactive)
same,GI50,Malme-3M,2.48 µM (inactive)
same,GI50,SW-620,0.365 µM (active)
same,GI50,MOLT-4,0.302 µM (active)
same,GI50,T47D,0.867 µM (active)
same,GI50,HT-29,0.437 µM (active)
same,GI50,SNB-19,0.929 µM (active)
same,GI50,HOP-62,5.56 µM (inactive)
same,GI50,K562,0.478 µM (active)
same,GI50,MCF7,0.402 µM (active)
same,GI50,IGROV-1,0.622 µM (active)
same,GI50,SK-OV-3,1.51 µM (inactive)
same,GI50,CCRF-CEM,0.45 µM (active)
same,GI50,UACC-62,2.75 µM (inactive)
same,GI50,UO-31,1.57 µM (inactive)
same,GI50,Hs-578T,0.257 µM (active)
same,GI50,SNB-75,1.19 µM (inactive)
same,GI50,SK-MEL-2,1.14 µM (inactive)
same,GI50,NCI-H226,2.67 µM (inactive)
same,GI50,RPMI-8226,0.555 µM (active)
same,GI50,A549,0.537 µM (active)
same,GI50,SN12C,0.74 µM (active)
same,GI50,NCI-H460,0.379 µM (active)
same,GI50,UACC-257,4.88 µM (inactive)
same,GI50,EKVX,1.01 µM (active)
same,GI50,MDA-MB-231,0.442 µM (active)
same,GI50,SK-MEL-5,0.241 µM (active)
same,GI50,PC-3,0.804 µM (active)
same,GI50,TK-10,2.12 µM (inactive)
same,GI50,SR,0.512 µM (active)
same,GI50,CAKI-1,4.32 µM (inactive)
same,GI50,HCT-15,0.883 µM
same,GI50,OVCAR-5,0.802 µM (active)
same,GI50,KM12,0.392 µM (active)
same,GI50,OVCAR-3,1.55 µM (inactive)
same,GI50,DU-145,1.05 µM (active)
same,GI50,MDA-MB-435,1.06 µM (active)
same,GI50,RXF 393,0.37 µM (active)
same,GI50,786-0,0.445 µM (active)
same,GI50,A498,2.32 µM (inactive)
same,GI50,OVCAR-4,0.627 µM (active)
same,GI50,HL-60,0.514 µM (active)
same,GI50,M14,1.08 µM (active)
